Test results from the NIST ThermoML archive (doi:10.1021/je300280s).
Where “and” joins values, the source holds several entries; their conditions need not be identical. Equal values may be shown once.

Key:
[1] = xn = mol fraction of the nth substance listed; conditions: 101.3 kPa, Liquid, Vibrating tube method
[2] = excess molar enthalpy (molar enthalpy of mixing); xn = mol fraction of the nth substance listed; conditions: 101.3 kPa, Liquid, Flow calorimetry

CC(=O)C(C)=O [2,3-butanedione] + O
Conditions | excess molar enthalpy, [2] | mass density, [1]
288.15 K, x1 = 0.002059 | – | 1001.04 kg/m3
288.15 K, x1 = 0.002062 | – | 1001.04 kg/m3
288.15 K, x1 = 0.003086 | – | 1002 kg/m3
288.15 K, x1 = 0.003089 | – | 1002 kg/m3
288.15 K, x1 = 0.004111 | – | 1002.95 kg/m3
288.15 K, x1 = 0.004113 | – | 1002.96 kg/m3
288.15 K, x1 = 0.005132 | – | 1003.91 kg/m3
288.15 K, x1 = 0.005135 | – | 1003.91 kg/m3
288.15 K, x1 = 0.006153 | – | 1004.87 kg/m3
288.15 K, x1 = 0.006157 | – | 1004.87 kg/m3
288.18 K, x1 = 0.00103 | -0.00487 kcal/mol | –
288.18 K, x1 = 0.001032 | -0.00488 kcal/mol | –
288.18 K, x1 = 0.002059 | -0.00976 kcal/mol | –
288.18 K, x1 = 0.002062 | -0.00976 kcal/mol | –
288.18 K, x1 = 0.003086 | -0.0146 kcal/mol | –
288.18 K, x1 = 0.003089 | -0.0146 kcal/mol | –
288.18 K, x1 = 0.004111 | -0.0193 kcal/mol | –
288.18 K, x1 = 0.004113 | -0.0194 kcal/mol | –
288.18 K, x1 = 0.005132 | -0.0241 kcal/mol | –
288.18 K, x1 = 0.005135 | -0.0241 kcal/mol | –
288.18 K, x1 = 0.006153 | -0.029 kcal/mol | –
288.18 K, x1 = 0.006157 | -0.0288 kcal/mol | –
293.15 K, x1 = 0.001031 | -0.00462 kcal/mol | 999.136 kg/m3
293.15 K, x1 = 0.00206 | -0.00926 kcal/mol | 1000.07 kg/m3
293.15 K, x1 = 0.003088 | -0.0138 kcal/mol | 1001 kg/m3
293.15 K, x1 = 0.004114 | -0.0182 kcal/mol | 1001.9 kg/m3
293.15 K, x1 = 0.005136 | -0.0227 kcal/mol | 1002.82 kg/m3
293.15 K, x1 = 0.006158 | -0.0272 kcal/mol | 1003.73 kg/m3
298.15 K, x1 = 0.001032 | -0.00443 kcal/mol and -0.00441 kcal/mol | 997.937 kg/m3 and 997.929 kg/m3
298.15 K, x1 = 0.002061 | -0.00881 kcal/mol | 998.816 kg/m3
298.15 K, x1 = 0.002062 | -0.00882 kcal/mol | 998.823 kg/m3
298.15 K, x1 = 0.003089 | -0.0132 kcal/mol | 999.697 kg/m3 and 999.692 kg/m3
298.15 K, x1 = 0.004113 | -0.0175 kcal/mol | 1000.57 kg/m3
298.15 K, x1 = 0.004114 | -0.0174 kcal/mol | 1000.56 kg/m3
298.15 K, x1 = 0.005137 | -0.0218 kcal/mol | 1001.45 kg/m3 and 1001.43 kg/m3
298.15 K, x1 = 0.00616 | -0.0261 kcal/mol | 1002.32 kg/m3 and 1002.3 kg/m3
303.15 K, x1 = 0.001032 | -0.00411 kcal/mol | 996.49 kg/m3
303.15 K, x1 = 0.002061 | -0.00821 kcal/mol | 997.341 kg/m3
303.15 K, x1 = 0.003089 | -0.0123 kcal/mol | 998.182 kg/m3
303.15 K, x1 = 0.004114 | -0.0163 kcal/mol | 999.012 kg/m3
303.15 K, x1 = 0.005137 | -0.0203 kcal/mol | 999.84 kg/m3
303.15 K, x1 = 0.006159 | -0.0243 kcal/mol | 1000.66 kg/m3
308.15 K, x1 = 0.001031 | -0.00386 kcal/mol and -0.00387 kcal/mol | 994.828 kg/m3 and 994.831 kg/m3
308.15 K, x1 = 0.00206 | -0.00777 kcal/mol and -0.00778 kcal/mol | 995.637 kg/m3
308.15 K, x1 = 0.003086 | -0.0116 kcal/mol | 996.432 kg/m3
308.15 K, x1 = 0.003088 | -0.0117 kcal/mol | 996.443 kg/m3
308.15 K, x1 = 0.004109 | -0.0155 kcal/mol | 997.222 kg/m3
308.15 K, x1 = 0.004114 | -0.0155 kcal/mol | 997.237 kg/m3
308.15 K, x1 = 0.005131 | -0.0194 kcal/mol | 998.031 kg/m3
308.15 K, x1 = 0.005137 | -0.0194 kcal/mol | 998.026 kg/m3
308.15 K, x1 = 0.006152 | -0.0232 kcal/mol | 998.821 kg/m3
308.15 K, x1 = 0.00616 | -0.0232 kcal/mol | 998.816 kg/m3
313.15 K, x1 = 0.001032 | -0.00352 kcal/mol | 992.976 kg/m3
313.15 K, x1 = 0.002062 | -0.0071 kcal/mol | 993.745 kg/m3
313.15 K, x1 = 0.003091 | -0.0107 kcal/mol | 994.499 kg/m3
313.15 K, x1 = 0.004116 | -0.0142 kcal/mol | 995.251 kg/m3
313.15 K, x1 = 0.005139 | -0.0178 kcal/mol | 996.015 kg/m3
313.15 K, x1 = 0.006161 | -0.0213 kcal/mol | 996.763 kg/m3
318.15 K, x1 = 0.001031 | -0.00324 kcal/mol | 990.924 kg/m3
318.15 K, x1 = 0.001032 | -0.00325 kcal/mol | 990.928 kg/m3
318.15 K, x1 = 0.00206 | -0.00659 kcal/mol | 991.645 kg/m3
318.15 K, x1 = 0.002062 | -0.00661 kcal/mol | 991.65 kg/m3
318.15 K, x1 = 0.003088 | -0.01 kcal/mol | 992.362 kg/m3
318.15 K, x1 = 0.00309 | -0.00996 kcal/mol | 992.361 kg/m3
318.15 K, x1 = 0.004114 | -0.0133 kcal/mol | 993.082 kg/m3
318.15 K, x1 = 0.004116 | -0.0133 kcal/mol | 993.069 kg/m3
318.15 K, x1 = 0.005137 | -0.0167 kcal/mol | 993.801 kg/m3
318.15 K, x1 = 0.00514 | -0.0168 kcal/mol | 993.799 kg/m3
318.15 K, x1 = 0.006159 | -0.0201 kcal/mol | 994.517 kg/m3
318.15 K, x1 = 0.006164 | -0.0202 kcal/mol | 994.503 kg/m3
